Assay results: patent US6346535B1, “Fungicidal mixtures” (American Cyanamid Company, priority 1999, dated 2002)
Read-outs that look alike come from different tables or passages of the source.

What was measured:
Type in all cases: in vivo
[1] = test system: Pyrenophora teres on barley; experiment: Greenhouse trial, 4 day residual, Pyrenophora teres on barley; details: for pest or weed control at 2 ppm / pest or weed control at 10 ppm / pest or weed control at 0.4 ppm / pest or weed control at 50 ppm: Pyrenophora teres, 96 h, read-out: Observed Efficacy
From the text: (§1) The fungicides are applied in single treatments, or in a combination comprising a benzophenone of formula I and a compound selected from (A) through (E) as defined above. The compounds are applied in form of an aqueous spray mix obtained from a concentrated formulation or the technical material.
(§2) 1. Seed is planted in 6 cm diameter plastic pots and maintained in the greenhouse.
(§3) 2. When the primary leaf is fully expanded (in the case of cereals) or several leaves are present (in the case of dicots), formulated test compounds are sprayed with a three nozzle overhead fungicide sprayer to near run-off. Alternatively, a single nozzle overhead track sprayer is used for application of the compounds to cereals at a rate of 200 liters/ha (l/ha). Plants are then allowed to air-dry.
(§4) 3. Inoculation precedes treatment in the case of curative evaluations and follows treatment in case of residual evaluations. For inoculation of powdery mildew disease, plants are set up on greenhouse benches with bottom watering mats and inoculated by dusting them with conidia from infected plants. Between inoculation and treatment for curative evaluations and between treatment and inoculation for residual evaluations, plants are maintained in the greenhouse with bottom watering. For inoculation of non-powdery mildew diseases, an aqueous spore suspension of the pathogen is applied to the plant and the plants are kept 1-2 days in a moist infection chamber before being returned to the greenhouse where they are maintained by bottom watering.
(§5) 4. Disease on the foliage as percent leaf area with disease symptoms/signs is evaluated about 7 days after inoculation. In the case of wheat, the tips and bases of the leaves are excluded from the evaluation. [formula]
(§6) 1. Technical compounds are formulated in a solvent/surfactant system consisting of 5% acetone and 0.05% Tween 20 in deionized water. Compounds are dissolved in acetone prior to addition of the water; the Tween 20 can be added through either the acetone or the water. Dilutions are made using the solvent/surfactant system. Formulated compounds are prepared using deionized water.
(§7) Assessments of the diseases took place at the indicated day after the application of the compounds. Per cent infected leaf area infected was evaluated. The efficacy of the compounds/compounds mixtures to control the diseases was calculated by using the formula given above under item 4: […]
(§8) Synergy of a fungicide mixture was determined by comparing the actual (observed) fungicidal activity of the mixture to the expected fungicidal activity of the mixture as calculated using the COLBY formula given hereinabove.
Fungicidal Efficacy of the Mixture of BP-4+Other Fungicides (4 Day Residual) Against Pyrenophora teres on Barley

[2] = test system: Erysiphe cichoracearum on cucumbers; experiment: Greenhouse trial, 4 day residual, Erysiphe cichoracearum on cucumbers; details: for pest or weed control at 0.4 ppm / pest or weed control at 10 ppm / pest or weed control at 2 ppm / pest or weed control at 50 ppm: Golovinomyces cichoracearum, 96 h, read-out: Observed Efficacy
From the text: as §1, §2, §3, §4, §5, §6, §7, §8

[3] = test system: Puccinia recondita on wheat; experiment: Greenhouse trial, 4 day residual, Puccinia recondita on wheat
From the text: as §1, §2, §3, §4, §5, §6, §7, §8
Fungicidal Efficacy of the Mixture of BP-4+Other Fungicides (4 Day Residual) Against Puccinia recondita on Wheat
Fungicidal Efficacy of the Mixture of BP-4+Myclobutanil (4 Day Residual) Against Puccinia recondita on Wheat

[4] = test system: Leptosphaeria nodorum on wheat; experiment: Greenhouse trial, 4 day residual, Leptosphaeria nodorum on wheat; details: Table VIII, compound alone
From the text: as §1, §2, §3, §4, §5, §6, §7, §8
Fungicidal Efficacy of the Mixture of BP-4+Other Fungicides (4 Day Residual) Against Leptosphaeria nodorum on Wheat

[5] = Table XIII (Example 13), 4 day residual, dose rate 0.4 ppm
[6] = Table XIII (Example 13), 4 day residual, dose rate 2 ppm
[7] = Table XIII (Example 13), 4 day residual, dose rate 10 ppm
[8] = Table XIII (Example 13), 4 day residual, dose rate 50 ppm
[9] = Table XVI (Example 16), 4 day residual, dose rate 2 ppm
[10] = Table XVI (Example 16), 4 day residual, dose rate 10 ppm
[11] = Table XIV (Example 14), 4 day residual, dose rate 0.4 ppm
[12] = Table XIV (Example 14), 4 day residual, dose rate 10 ppm
[13] = Puccinia recondita, 96 h, Table XV (Example 15), 4 day residual, dose rate 0.4 ppm, read-out: Observed Efficacy
[14] = Puccinia recondita, 96 h, Table XV (Example 15), 4 day residual, dose rate 2 ppm, read-out: Observed Efficacy
[15] = Table XIV (Example 14), 4 day residual, dose rate 2 ppm
[16] = Table XIV (Example 14), 4 day residual, dose rate 50 ppm
[17] = Puccinia recondita, 96 h, Table XV (Example 15), 4 day residual, dose rate 10 ppm, read-out: Observed Efficacy
[18] = Puccinia recondita, 96 h, Table XV (Example 15), 4 day residual, dose rate 50 ppm, read-out: Observed Efficacy
[19] = Table XVI (Example 16), 4 day residual, dose rate 0.4 ppm
[20] = Table XI, compound alone, dose rate 0.4 ppm
[21] = Table XI, compound alone, dose rate 2 ppm
[22] = Table XI, compound alone, dose rate 10 ppm
[23] = Table XI, compound alone, dose rate 50 ppm
[24] = Puccinia recondita, 96 h, read-out: Observed Efficacy
[25] = Table XVI (Example 16), 4 day residual, dose rate 50 ppm
[26] = Table VI, compound alone, dose rate 4 ppm
[27] = Table VI, compound alone, dose rate 16 ppm
[28] = Table VI, compound alone, dose rate 64 ppm
[29] = Table VI, compound alone, dose rate 256 ppm
[30] = Table VII, compound alone, dose rate 4 ppm
[31] = Table VII, compound alone, dose rate 16 ppm
[32] = Table VII, compound alone, dose rate 64 ppm
[33] = Table VII, compound alone, dose rate 256 ppm

[Cl-].[Cu+2].[Cu+2].[OH-].[OH-].[OH-] [Copper oxychloride]
Observed Efficacy [1, 5]: 0
Observed Efficacy [1, 6]: 0
Observed Efficacy [1, 7]: 14
Observed Efficacy [1, 8]: 14

CC(C1CC1)C(O)(Cn1cncn1)c1ccc(Cl)cc1 (stereo not shown) [Cyproconazole]
pest or weed control at 2 ppm [1, 9]: 4%
pest or weed control at 10 ppm [1, 10]: 1%
pest or weed control at 0.4 ppm [2, 11]: 19%
pest or weed control at 10 ppm [2, 12]: 68%
pest or weed control at 0.4 ppm [3, 13]: 88%
pest or weed control at 2 ppm [3, 14]: 99%

OC(c1ccc(Cl)cc1)(c1cncnc1)c1ccccc1Cl (stereo not shown) [Fenarimol]
pest or weed control at 2 ppm [1, 9]: 0%
pest or weed control at 10 ppm [1, 10]: 4%
pest or weed control at 0.4 ppm [2, 11]: 5%
pest or weed control at 2 ppm [2, 15]: 34%
pest or weed control at 10 ppm [2, 12]: 42%
pest or weed control at 50 ppm [2, 16]: 67%
pest or weed control at 0.4 ppm [3, 13]: 0%
pest or weed control at 2 ppm [3, 14]: 9%
pest or weed control at 10 ppm [3, 17]: 23%
pest or weed control at 50 ppm [3, 18]: 90%

CC(Cc1ccc(C(C)(C)C)cc1)CN1C[C@@H](C)O[C@@H](C)C1 (stereo partly shown) [Fenpropimorph]
pest or weed control at 0.4 ppm [1, 19]: 0%
pest or weed control at 2 ppm [1, 9]: 0%
pest or weed control at 10 ppm [1, 10]: 3%
pest or weed control at 0.4 ppm [2, 11]: 0%
pest or weed control at 2 ppm [2, 15]: 0%
pest or weed control at 10 ppm [2, 12]: 7%
pest or weed control at 0.4 ppm [3, 13]: 2%
pest or weed control at 2 ppm [3, 14]: 15%
pest or weed control at 50 ppm [3, 18]: 60%

CO/N=C(/C(=O)OC)c1ccccc1COc1ccccc1C [Kresoxim-methyl]
pest or weed control at 0.4 ppm [1, 5]: 0%
pest or weed control at 2 ppm [1, 6]: 21%
pest or weed control at 0.4 ppm [2, 20]: 2%
pest or weed control at 2 ppm [2, 21]: 14%
pest or weed control at 10 ppm [2, 22]: 88%
pest or weed control at 50 ppm [2, 23]: 100%

CCCCC(C#N)(Cn1cncn1)c1ccc(Cl)cc1 (stereo not shown) [Myclobutanil]
pest or weed control at 0.4 ppm [1, 5]: 0%
pest or weed control at 2 ppm [1, 6]: 21%
pest or weed control at 10 ppm [1, 7]: 40%
pest or weed control at 50 ppm [1, 8]: 82%
pest or weed control at 0.4 ppm [2, 20]: 36%
pest or weed control at 2 ppm [2, 21]: 52%
pest or weed control at 10 ppm [2, 22]: 73%
pest or weed control at 50 ppm [2, 23]: 96%
pest or weed control at 0.4 ppm ([3]; Puccinia recondita, 96 h, Table XII, compound alone, dose rate 0.4 ppm, read-out: Observed Efficacy): 13%
pest or weed control at 2 ppm ([3]; Puccinia recondita, 96 h, Table XII, compound alone, dose rate 2 ppm, read-out: Observed Efficacy): 52%
pest or weed control at 10 ppm ([3]; Puccinia recondita, 96 h, Table XII, compound alone, dose rate 10 ppm, read-out: Observed Efficacy): 72%
pest or weed control at 50 ppm ([3]; Puccinia recondita, 96 h, Table XII, compound alone, dose rate 50 ppm, read-out: Observed Efficacy): 99%

CCCN(CCOc1c(Cl)cc(Cl)cc1Cl)C(=O)n1ccnc1 [Prochloraz]
pest or weed control at 0.4 ppm [1]: 8%
pest or weed control at 2 ppm [1]: 19%
pest or weed control at 10 ppm [1]: 48%
pest or weed control at 0.4 ppm [2]: 0%
pest or weed control at 2 ppm [2]: 0%
pest or weed control at 10 ppm [2]: 1%
pest or weed control at 50 ppm [2]: 18%
pest or weed control at 0.4 ppm [3, 24]: 0%
pest or weed control at 2 ppm [3, 24]: 0%
pest or weed control at 16 ppm [3, 24]: 1%
pest or weed control at 50 ppm [3, 24]: 14%

CON=C(Cc1cccnc1)c1ccc(Cl)cc1Cl [Pyrifenox]
pest or weed control at 0.4 ppm [1, 19]: 0%
pest or weed control at 2 ppm [1, 9]: 0%
pest or weed control at 50 ppm [1, 25]: 15%
pest or weed control at 0.4 ppm [2, 11]: 0%
pest or weed control at 2 ppm [2, 15]: 0%
pest or weed control at 10 ppm [2, 12]: 1%
pest or weed control at 50 ppm [2, 16]: 20%
pest or weed control at 0.4 ppm [3, 13]: 0%
pest or weed control at 2 ppm [3, 14]: 0%
pest or weed control at 10 ppm [3, 17]: 1%
pest or weed control at 50 ppm [3, 18]: 6%

CCCN(CC)CC1COC2(CCC(C(C)(C)C)CC2)O1 (stereo not shown) [Spiroxamine]
pest or weed control at 0.4 ppm [1, 19]: 0%
pest or weed control at 2 ppm [1, 9]: 3%
pest or weed control at 10 ppm [1, 10]: 5%
pest or weed control at 50 ppm [1, 25]: 16%
pest or weed control at 0.4 ppm [2, 11]: 0%
pest or weed control at 2 ppm [2, 15]: 0%
pest or weed control at 10 ppm [2, 12]: 2%
pest or weed control at 2 ppm [3, 14]: 0%
pest or weed control at 10 ppm [3, 17]: 4%
pest or weed control at 50 ppm [3, 18]: 17%

S1SSSSSSS1 [Sulfur organic, Sulfur]
pest or weed control at 2 ppm [1, 6]: 0%
pest or weed control at 10 ppm [1, 7]: 0%
pest or weed control at 0.4 ppm [2, 20]: 0%
pest or weed control at 2 ppm [2, 21]: 0%
pest or weed control at 10 ppm [2, 22]: 7%
pest or weed control at 50 ppm [2, 23]: 0%

Cyprodinil
Observed Efficacy ([4]; dose rate 4 ppm): 0%
Observed Efficacy ([4]; dose rate 16 ppm): 75%
Observed Efficacy ([4]; dose rate 64 ppm): 88%
Observed Efficacy ([4]; dose rate 256 ppm): 93%
Observed Efficacy [2, 26]: 0%
Observed Efficacy [2, 27]: 0%
Observed Efficacy [2, 28]: 0%
Observed Efficacy [2, 29]: 15%
Observed Efficacy [3, 30]: 0%
Observed Efficacy [3, 31]: 0%
Observed Efficacy [3, 32]: 0%
Observed Efficacy [3, 33]: 0%

Dinocap
Observed Efficacy [1, 19]: 0
Observed Efficacy [1, 9]: 0
Observed Efficacy [1, 10]: 5
Observed Efficacy [2, 11]: 0
Observed Efficacy [2, 15]: 0
Observed Efficacy ([3]; Table XV (Example 15), 4 day residual, dose rate 0.4 ppm): 4
Observed Efficacy ([3]; Table XV (Example 15), 4 day residual, dose rate 2 ppm): 13
Observed Efficacy ([3]; Table XV (Example 15), 4 day residual, dose rate 10 ppm): 23

Mancozeb
Observed Efficacy ([4]; dose rate 4 ppm): 0%
Observed Efficacy ([4]; dose rate 16 ppm): 21%
Observed Efficacy ([4]; dose rate 64 ppm): 47%
Observed Efficacy ([4]; dose rate 256 ppm): 69%
Observed Efficacy [2, 26]: 0%
Observed Efficacy [2, 27]: 0%
Observed Efficacy [2, 28]: 1%
Observed Efficacy [2, 29]: 33%
Observed Efficacy [3, 30]: 0%
Observed Efficacy [3, 31]: 0%
Observed Efficacy [3, 32]: 28%
Observed Efficacy [3, 33]: 91%

Propiconazole
Observed Efficacy [1, 5]: 0
Observed Efficacy [1, 6]: 0
Observed Efficacy [1, 7]: 38
Observed Efficacy [1, 8]: 74
Observed Efficacy [2, 20]: 0%
Observed Efficacy [2, 21]: 19%
Observed Efficacy [2, 22]: 76%
Observed Efficacy [2, 23]: 96%

Quinoxyfen
Observed Efficacy ([4]; dose rate 16 ppm): 1%
Observed Efficacy ([4]; dose rate 64 ppm): 0%
Observed Efficacy ([4]; dose rate 256 ppm): 18%
Observed Efficacy [2, 26]: 90%
Observed Efficacy [2, 27]: 100%
Observed Efficacy [2, 28]: 100%
Observed Efficacy [2, 29]: 100%
Observed Efficacy [3, 30]: 0%
Observed Efficacy [3, 31]: 0%
Observed Efficacy [3, 32]: 0%
Observed Efficacy [3, 33]: 0%
